Measured values as given in patent publication US7795261B2, “Substituted 1-piperidin-4-yl-4-pyrrolidin-3-yl-piperazine derivatives and their use as neurokinin antagonists” (Janssen Pharmaceutica NV, priority 2002, dated 2010).

Legend:
Format in all cases: cell-based
NK1 = NK1 (Homo sapiens, UniProt P25103); test: Signal transduction (ST), intracellular Ca++ (FLIPR), NK1 antagonistic activity; settings: read-out: pIC50 NK1 (converted)
Procedure, shortened: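 Antagonist IC50 was fitted by non-linear regression of peak intracellular Ca++ signals measured on FLIPR after agonist challenge. Beforehand, Fluo3-loaded confluent cells received antagonists over a concentration range for 20 min at room temperature in Ca++ Krebs buffer, pH 7.4.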

NK2 = molecular target: T1, NK2 (Homo sapiens, UniProt P21452); test: Signal transduction (ST), intracellular Ca++ (FLIPR), NK2; settings: read-out: pIC50 NK2 (converted)
T1 sequence (P21452 1-398): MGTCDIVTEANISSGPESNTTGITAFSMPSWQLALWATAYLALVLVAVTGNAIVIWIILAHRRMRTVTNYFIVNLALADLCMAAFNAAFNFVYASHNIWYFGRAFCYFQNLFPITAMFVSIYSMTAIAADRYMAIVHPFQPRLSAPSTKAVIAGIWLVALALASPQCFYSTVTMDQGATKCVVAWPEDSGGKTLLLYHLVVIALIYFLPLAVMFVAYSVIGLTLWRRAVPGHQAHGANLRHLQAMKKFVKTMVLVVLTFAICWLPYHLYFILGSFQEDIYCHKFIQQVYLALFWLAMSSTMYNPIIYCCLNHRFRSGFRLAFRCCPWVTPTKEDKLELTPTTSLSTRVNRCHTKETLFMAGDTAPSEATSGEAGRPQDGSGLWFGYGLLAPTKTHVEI

NK3 = molecular target: T2, NK3 (Homo sapiens, UniProt P29371); test: Signal transduction (ST), intracellular Ca++ (FLIPR), NK3; settings: read-out: pIC50 NK3 (converted)
T2 sequence (P29371 1-465): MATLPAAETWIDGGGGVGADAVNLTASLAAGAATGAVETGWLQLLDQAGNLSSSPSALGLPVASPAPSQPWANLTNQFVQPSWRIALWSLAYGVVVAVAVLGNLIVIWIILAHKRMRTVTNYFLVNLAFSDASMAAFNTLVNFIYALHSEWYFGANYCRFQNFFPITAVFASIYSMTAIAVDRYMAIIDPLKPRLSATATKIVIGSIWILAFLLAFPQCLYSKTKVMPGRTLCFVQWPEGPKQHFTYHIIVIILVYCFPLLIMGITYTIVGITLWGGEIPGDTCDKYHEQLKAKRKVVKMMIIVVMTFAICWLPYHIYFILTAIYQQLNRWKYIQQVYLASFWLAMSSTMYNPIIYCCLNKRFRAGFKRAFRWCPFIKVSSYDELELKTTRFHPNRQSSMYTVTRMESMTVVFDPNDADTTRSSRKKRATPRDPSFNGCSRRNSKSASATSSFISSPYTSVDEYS

Sequence of NK1 (P25103 whole entry): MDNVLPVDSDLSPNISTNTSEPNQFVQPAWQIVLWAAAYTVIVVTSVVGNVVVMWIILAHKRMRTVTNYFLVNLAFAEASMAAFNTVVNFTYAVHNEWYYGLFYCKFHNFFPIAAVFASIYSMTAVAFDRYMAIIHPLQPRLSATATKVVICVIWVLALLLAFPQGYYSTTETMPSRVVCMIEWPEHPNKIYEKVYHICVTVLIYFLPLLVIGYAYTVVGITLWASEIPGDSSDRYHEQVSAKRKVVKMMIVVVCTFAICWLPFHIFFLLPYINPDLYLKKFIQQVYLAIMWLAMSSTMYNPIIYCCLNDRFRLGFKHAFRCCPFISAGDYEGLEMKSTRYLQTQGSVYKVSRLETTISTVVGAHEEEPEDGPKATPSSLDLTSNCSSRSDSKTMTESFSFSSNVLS

| Compound | IC50 (NK1) [nM] | IC50 (NK2) [nM] | IC50 (NK3) [nM] |
| --- | --- | --- | --- |
| CC(C)(C)OC(=O)NC(C)(C)C(=O)N1CCC(N2CCN(C3CCN(C(=O)c4cc(C(F)(F)F)cc(C(F)(F)F)c4)C(Cc4ccccc4)C3)CC2)C1 (stereo not drawn) [Compound 205] | 10 | 3160 | 251 |
| CC(C)(C)OC(=O)N1CCCCC1C(=O)N1CCC(N2CCN(C3CCN(C(=O)c4cc(C(F)(F)F)cc(C(F)(F)F)c4)C(Cc4ccccc4)C3)CC2)C1 (stereo not drawn) [Compound 206] | 10 | 794 | 251 |
| O=C(c1ccoc1)N1CCC(N2CCN(C3CCN(C(=O)c4cc(C(F)(F)F)cc(C(F)(F)F)c4)C(Cc4ccc(F)c(F)c4)C3)CC2)C1 (stereo not drawn) [Compound 226] | 6.31 | 1260 | 501 |
| O=C(c1ccoc1)N1CC[C@H](N2CCN([C@@H]3CCN(C(=O)c4cc(C(F)(F)F)cc(C(F)(F)F)c4)[C@@H](Cc4ccc(Cl)c(Cl)c4)C3)CC2)C1 [Compound 250] | 100 | 6310 | 5010 |
| O=C(c1ccsc1)N1CC[C@H](N2CCN([C@@H]3CCN(C(=O)c4cc(C(F)(F)F)cc(C(F)(F)F)c4)[C@@H](Cc4ccc(Cl)c(Cl)c4)C3)CC2)C1 [Compound 251] | 50.1 | 6310 | 5010 |
| O=C(c1ccccc1Cl)N1CCC(N2CCN(C3CCN(C(=O)c4cc(C(F)(F)F)cc(C(F)(F)F)c4)C(Cc4ccc(F)c(F)c4)C3)CC2)C1 (stereo not drawn) [Compound 255] | 15.8 | 1260 | 398 |
| O=C(c1c(Cl)cccc1Cl)N1CCC(N2CCN(C3CCN(C(=O)c4cc(C(F)(F)F)cc(C(F)(F)F)c4)C(Cc4ccc(F)c(F)c4)C3)CC2)C1 (stereo not drawn) [Compound 256] | 25.1 | 1580 | 398 |
| CC(C)(C)OC(=O)N1CC[C@@H](N2CCN([C@H]3CCN(C(=O)c4cc(C(F)(F)F)cc(C(F)(F)F)c4)[C@H](Cc4ccc(Cl)c(Cl)c4)C3)CC2)C1 [Compound 261] | 31.6 | 1260 | 501 |
| O=C(C1CC1)N1CC[C@@H](N2CCN([C@H]3CCN(C(=O)c4cc(C(F)(F)F)cc(C(F)(F)F)c4)[C@H](Cc4ccc(Cl)c(Cl)c4)C3)CC2)C1 [Compound 263] | 6.31 | 794 | 316 |
| O=C(c1cccs1)N1CC[C@@H](N2CCN([C@H]3CCN(C(=O)c4cc(C(F)(F)F)cc(C(F)(F)F)c4)[C@H](Cc4ccc(Cl)c(Cl)c4)C3)CC2)C1 [Compound 264] | 12.6 | 1580 | 200 |
| O=C(c1c(Cl)cccc1Cl)N1CC[C@@H](N2CCN([C@H]3CCN(C(=O)c4cc(C(F)(F)F)cc(C(F)(F)F)c4)[C@H](Cc4ccc(Cl)c(Cl)c4)C3)CC2)C1 [Compound 265] | 20 | 1580 | 158 |
| O=C(c1ccccc1Cl)N1CC[C@@H](N2CCN([C@H]3CCN(C(=O)c4cc(C(F)(F)F)cc(C(F)(F)F)c4)[C@H](Cc4ccc(Cl)c(Cl)c4)C3)CC2)C1 [Compound 266] | 7.94 | 1000 | 316 |
| O=C(c1ccco1)N1CC[C@@H](N2CCN([C@H]3CCN(C(=O)c4cc(C(F)(F)F)cc(C(F)(F)F)c4)[C@H](Cc4ccc(Cl)c(Cl)c4)C3)CC2)C1 [Compound 267] | 7.94 | 631 | 200 |
| O=C(c1cc(C(F)(F)F)cc(C(F)(F)F)c1)N1CC[C@H](N2CCN([C@@H]3CCN(S(=O)(=O)c4cccs4)C3)CC2)C[C@H]1Cc1ccc(Cl)c(Cl)c1 [Compound 268] | 20 | 251 | 1000 |
| N#Cc1ccc(C(=O)N2CCC(N3CCN([C@H]4CCN(C(=O)c5cc(C(F)(F)F)cc(C(F)(F)F)c5)[C@H](Cc5ccccc5)C4)CC3)C2)cc1 (stereo partly drawn) [Compound 271] | 6.31 | 5010 | 2000 |
| O=C(C(O)c1ccccc1)N1CCC(N2CCN([C@H]3CCN(C(=O)c4cc(C(F)(F)F)cc(C(F)(F)F)c4)[C@H](Cc4ccccc4)C3)CC2)C1 (stereo partly drawn) [Compound 275] | 10 | 2510 | 5010 |
| O=C(c1cc(C(F)(F)F)cc(C(F)(F)F)c1)N1CC[C@H](N2CCN(C3CCN(C(=O)C4(O)CC4)C3)CC2)C[C@H]1Cc1ccccc1 (stereo partly drawn) [Compound 276] | 10 | 3160 | 5010 |

| Compound | IC50 (NK1) [nM] | IC50 (NK2) [nM] | IC50 (NK3) [nM] |
| --- | --- | --- | --- |
| O=C(c1ccsc1)N1CCC(N2CCN(C3CCN(C(=O)c4cc(C(F)(F)F)cc(C(F)(F)F)c4)C(Cc4ccc(F)cc4)C3)CC2)C1 (stereo not drawn) [Compound 278] | 15.8 | 3980 | 2000 |
| O=C(c1ccccc1Cl)N1CCC(N2CCN(C3CCN(C(=O)c4cc(C(F)(F)F)cc(C(F)(F)F)c4)C(Cc4ccc(F)cc4)C3)CC2)C1 (stereo not drawn) [Compound 279] | 15.8 | 3980 | 2000 |
| COc1ccc(S(=O)(=O)N2CCC(N3CCN([C@H]4CCN(C(=O)c5cc(C(F)(F)F)cc(C(F)(F)F)c5)[C@H](Cc5ccccc5)C4)CC3)C2)cc1 (stereo partly drawn) [Compound 280] | 15.8 | 1260 | 3980 |
| Cn1cnc(C(=O)N2CCC(N3CCN([C@H]4CCN(C(=O)c5cc(C(F)(F)F)cc(C(F)(F)F)c5)[C@H](Cc5ccccc5)C4)CC3)C2)c1 (stereo partly drawn) [Compound 282] | 12.6 | 3980 | 3980 |
| N#Cc1ccc(NC(=O)N2CCC(N3CCN([C@H]4CCN(C(=O)c5cc(C(F)(F)F)cc(C(F)(F)F)c5)[C@H](Cc5ccccc5)C4)CC3)C2)cc1 (stereo partly drawn) [Compound 283] | 25.1 | 3980 | 2510 |
| O=C(Nc1ccccc1F)N1CCC(N2CCN([C@H]3CCN(C(=O)c4cc(C(F)(F)F)cc(C(F)(F)F)c4)[C@H](Cc4ccccc4)C3)CC2)C1 (stereo partly drawn) [Compound 284] | 12.6 | 5010 | 3980 |
| O=C(c1cnccn1)N1CC[C@@H](N2CCN([C@H]3CCN(C(=O)c4cc(C(F)(F)F)cc(C(F)(F)F)c4)[C@H](Cc4ccc(Cl)c(Cl)c4)C3)CC2)C1 [Compound 286] | 6.31 | 1000 | 398 |
| O=C(c1ccsc1)N1CC[C@@H](N2CCN([C@H]3CCN(C(=O)c4cc(C(F)(F)F)cc(C(F)(F)F)c4)[C@H](Cc4ccc(Cl)c(Cl)c4)C3)CC2)C1 [Compound 287] | 12.6 | 1260 | 251 |
| O=C(c1ccoc1)N1CC[C@@H](N2CCN([C@H]3CCN(C(=O)c4cc(C(F)(F)F)cc(C(F)(F)F)c4)[C@H](Cc4ccc(Cl)c(Cl)c4)C3)CC2)C1 [Compound 288] | 7.94 | 1580 | 794 |
| CC(C)(C)C(=O)N1CC[C@@H](N2CCN([C@H]3CCN(C(=O)c4cc(C(F)(F)F)cc(C(F)(F)F)c4)[C@H](Cc4ccc(Cl)c(Cl)c4)C3)CC2)C1 [Compound 289] | 7.94 | 2000 | 794 |
| O=C(c1cc(C(F)(F)F)cc(C(F)(F)F)c1)N1CC[C@H](N2CCN(C3CCN(S(=O)(=O)c4sccc4COCc4ccccc4)C3)CC2)C[C@H]1Cc1ccccc1 (stereo partly drawn) [Compound 292] | 100 | 794 | 794 |
| CC(C)NC(=O)N1CCC(N2CCN([C@H]3CCN(C(=O)c4cc(C(F)(F)F)cc(C(F)(F)F)c4)[C@H](Cc4ccccc4)C3)CC2)C1 (stereo partly drawn) [Compound 293] | 15.8 | 6310 | 5010 |
| O=C(C1CCCCN1C(=O)c1ccccc1Cl)N1CCC(N2CCN(C3CCN(C(=O)c4cc(C(F)(F)F)cc(C(F)(F)F)c4)C(Cc4ccccc4)C3)CC2)C1 (stereo not drawn) [Compound 295] | 15.8 | 2000 | 316 |
| O=C(C1CCCCN1C(=O)C1CC1)N1CCC(N2CCN([C@H]3CCN(C(=O)c4cc(C(F)(F)F)cc(C(F)(F)F)c4)[C@H](Cc4ccccc4)C3)CC2)C1 (stereo partly drawn) [Compound 296] | 6.31 | 1580 | 794 |
| CC(C)(C)C(=O)N1CCCCC1C(=O)N1CCC(N2CCN([C@H]3CCN(C(=O)c4cc(C(F)(F)F)cc(C(F)(F)F)c4)[C@H](Cc4ccccc4)C3)CC2)C1 (stereo partly drawn) [Compound 297] | 6.31 | 2510 | 1260 |
| O=C(C1CCCCC1)N1CC[C@@H](N2CCN([C@H]3CCN(C(=O)c4cc(C(F)(F)F)cc(C(F)(F)F)c4)[C@H](Cc4ccc(Cl)c(Cl)c4)C3)CC2)C1 [Compound 299] | 7.94 | 2510 | 794 |
| COc1ccccc1S(=O)(=O)N1CCC(N2CCN([C@H]3CCN(C(=O)c4cc(C(F)(F)F)cc(C(F)(F)F)c4)[C@H](Cc4ccccc4)C3)CC2)C1 (stereo partly drawn) [Compound 300] | 10 | 794 | 2000 |
